Consider 4 molecules from article PMC4367813 (Current medicinal chemistry, 2012).

Like-named read-outs stand apart in the source and are kept apart here. Residues, ends and D or L forms follow the SMILES beside them. *: point of attachment. Cbz = O=C(OCc1ccccc1)*

Series [1] has as its system PRCP. Particulars: read-out: PRCP IC50, cited from earlier work.
Series [2] addresses T1, carboxypeptidase A (CPA) (Bos taurus, UniProt P00730).
T1 sequence (P00730 111-419): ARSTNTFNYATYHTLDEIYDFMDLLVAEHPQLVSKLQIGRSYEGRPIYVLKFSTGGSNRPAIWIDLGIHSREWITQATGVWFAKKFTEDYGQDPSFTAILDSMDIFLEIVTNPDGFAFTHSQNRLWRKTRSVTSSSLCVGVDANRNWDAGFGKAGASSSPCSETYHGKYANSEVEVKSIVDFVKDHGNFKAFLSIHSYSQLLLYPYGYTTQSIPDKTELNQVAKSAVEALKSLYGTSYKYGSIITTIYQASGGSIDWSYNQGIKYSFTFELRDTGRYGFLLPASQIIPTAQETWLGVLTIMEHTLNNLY
The series is described as follows: Specificity: carboxypeptidase A inhibition. It is filed as biochemical.

Series [3] addresses T2, carboxypeptidase M (CPM) (Homo sapiens, UniProt P14384).
T2 sequence (P14384 18-443): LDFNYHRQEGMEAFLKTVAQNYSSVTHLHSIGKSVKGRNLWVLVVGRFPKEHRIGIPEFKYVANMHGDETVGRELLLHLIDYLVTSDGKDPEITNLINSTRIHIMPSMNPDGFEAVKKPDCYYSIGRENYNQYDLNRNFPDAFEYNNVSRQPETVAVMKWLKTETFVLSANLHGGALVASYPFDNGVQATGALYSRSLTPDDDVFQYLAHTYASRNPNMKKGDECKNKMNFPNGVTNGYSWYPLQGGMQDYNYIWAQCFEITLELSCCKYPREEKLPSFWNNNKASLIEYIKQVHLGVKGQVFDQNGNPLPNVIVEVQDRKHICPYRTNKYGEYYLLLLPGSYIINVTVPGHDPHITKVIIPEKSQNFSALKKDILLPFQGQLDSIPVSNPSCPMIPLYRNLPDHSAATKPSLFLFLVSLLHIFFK
As to the kind of experiment: Specificity: carboxypeptidase M inhibition. It is filed as biochemical. Particulars: Table 5, NE = no effect.

The target of series [4] is T3, carboxypeptidase B (CPB) (Sus scrofa, UniProt P09955).
T3 sequence (P09955 111-416): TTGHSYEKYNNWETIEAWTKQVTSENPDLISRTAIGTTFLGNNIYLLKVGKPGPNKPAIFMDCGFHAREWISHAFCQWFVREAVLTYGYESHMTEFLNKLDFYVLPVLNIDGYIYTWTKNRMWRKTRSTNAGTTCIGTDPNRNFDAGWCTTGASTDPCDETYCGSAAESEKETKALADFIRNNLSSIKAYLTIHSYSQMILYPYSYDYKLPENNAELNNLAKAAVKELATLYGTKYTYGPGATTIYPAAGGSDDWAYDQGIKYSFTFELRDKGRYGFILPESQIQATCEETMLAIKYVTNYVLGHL
As to the kind of experiment: Specificity: carboxypeptidase B inhibition. It is filed as biochemical. To be noted: Table 5, NE = no effect.

The target of series [5] is T4, carboxypeptidase N (hCPN, partially purified from plasma) (Homo sapiens, UniProt P15169).
T4 sequence (P15169 21-458): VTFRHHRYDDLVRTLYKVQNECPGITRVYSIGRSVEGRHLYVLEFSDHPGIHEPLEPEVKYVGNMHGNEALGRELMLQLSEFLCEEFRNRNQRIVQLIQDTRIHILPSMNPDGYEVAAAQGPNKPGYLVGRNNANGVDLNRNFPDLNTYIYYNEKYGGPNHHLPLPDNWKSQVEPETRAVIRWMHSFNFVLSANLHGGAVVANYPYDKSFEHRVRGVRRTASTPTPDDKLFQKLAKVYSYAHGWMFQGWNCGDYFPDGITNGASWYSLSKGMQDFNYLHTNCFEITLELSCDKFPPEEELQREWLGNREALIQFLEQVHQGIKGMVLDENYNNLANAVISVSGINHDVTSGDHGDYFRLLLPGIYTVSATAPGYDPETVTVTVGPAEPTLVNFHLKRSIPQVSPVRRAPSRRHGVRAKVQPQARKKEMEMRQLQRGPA
T4 sequence (P22792 22-545 partner): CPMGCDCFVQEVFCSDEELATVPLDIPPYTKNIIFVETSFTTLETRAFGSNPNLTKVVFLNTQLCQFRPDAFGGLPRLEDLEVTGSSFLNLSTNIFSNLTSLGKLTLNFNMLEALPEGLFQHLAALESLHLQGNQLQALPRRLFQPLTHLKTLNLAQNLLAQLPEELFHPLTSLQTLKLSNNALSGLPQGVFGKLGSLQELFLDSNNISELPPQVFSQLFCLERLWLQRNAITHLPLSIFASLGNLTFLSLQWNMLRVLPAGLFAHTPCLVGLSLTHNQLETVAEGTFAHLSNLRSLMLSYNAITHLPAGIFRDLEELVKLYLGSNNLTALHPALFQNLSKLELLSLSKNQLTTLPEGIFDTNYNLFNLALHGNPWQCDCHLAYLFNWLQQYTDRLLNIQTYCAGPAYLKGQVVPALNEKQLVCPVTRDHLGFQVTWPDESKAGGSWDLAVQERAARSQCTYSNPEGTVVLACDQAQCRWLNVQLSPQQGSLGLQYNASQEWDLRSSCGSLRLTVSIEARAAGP
As to the kind of experiment: Specificity: carboxypeptidase N inhibition. It is filed as biochemical. Particulars: Table 5, NE = no effect.

Series [6] has as its system NO formation on HPAEC. As to the kind of experiment: PRCP-induced nitric oxide formation on HPAEC. It is filed as cell-based, human. Particulars: HPAEC with HK/PK complexes, 100 µM.
Series [7] relates to PGI2 (6-keto prostaglandin F1α) release from HPAEC. As to the kind of experiment: PRCP-induced 6-keto prostaglandin F1α release from HPAEC. It is filed as cell-based, human. To be noted: HPAEC with HK/PK complexes, 100 µM.
The test system of series [8] is food intake in mice. To be noted: fasted mice.
A short description of series [9]: Metabolic panel.
The target of series [10] is T5, recombinant PRCP (rPRCP) (Homo sapiens, UniProt P42785).
T5 sequence (P42785 46-496): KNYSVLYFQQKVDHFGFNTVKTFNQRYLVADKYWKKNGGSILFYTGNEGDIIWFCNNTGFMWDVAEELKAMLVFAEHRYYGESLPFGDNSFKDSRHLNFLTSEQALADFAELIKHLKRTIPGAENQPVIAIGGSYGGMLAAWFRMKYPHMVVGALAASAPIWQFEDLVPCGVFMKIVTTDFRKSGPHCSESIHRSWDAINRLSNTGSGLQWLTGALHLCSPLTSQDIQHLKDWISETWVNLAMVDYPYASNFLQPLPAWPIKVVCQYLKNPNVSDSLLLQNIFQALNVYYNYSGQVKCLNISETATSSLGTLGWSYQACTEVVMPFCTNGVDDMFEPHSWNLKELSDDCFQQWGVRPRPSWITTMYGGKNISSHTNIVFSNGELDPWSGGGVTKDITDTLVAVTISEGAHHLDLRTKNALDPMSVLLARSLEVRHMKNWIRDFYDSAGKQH
The series is described as follows: rPRCP activity, cleavage of chromogenic substrate APpNA. Particulars: 1 mM APpNA, 60 min; NE = no effect. It is filed as biochemical.

Series [11] concerns the target PRCP-dependent prekallikrein (PK) activation on HPAEC. The series is described as follows: PRCP-dependent PK activation on HPAEC. To be noted: 20 nM HK, 20 nM PK; NE = no effect. It is filed as cell-based, human.
[12] abbreviates: mice, Compound 3 (400 µM), within 8 hours of administration.

For the molecule `O=C[C@@H]1CCCN1C(=O)[C@@H]1CCCN1C(=O)OCc1ccccc1` (Cbz-Pro-Pro-aldehyde), in series [1], the IC50 (commonly the concentration that gives 50% inhibition) was more than 1 mM.
In the case of `c1cnc2c(c1)ccc1cccnc12` [1,10-Phenanthroline, 1,10-phenanthroline, reference compound], the Ki – broadly, a dissociation constant, usually derived from enzyme kinetics or from competition with a known ligand – in series [2] was determined as 486 µM; in [3] (Ki CPM), 394 µM.
`CCCCCCCCCCCCNC(=O)[C@@H]1CCCN1C(=O)[C@@H]1CCCN1` [Compound 3, (S)-N-dodecyl-1-((S)-pyrrolidine-2-carbonyl) pyrrolidine-2-carboxamide]: the “Ki CPA” value in series [2] (Table 5, NE = no effect) is recorded as “not inhibited”. In addition, the Ki in series [2] (read-out: Ki CPA, Table 5, NE = no effect) was more than 1000 µM. In addition, the “Ki CPB” value in series [4] is recorded as “not inhibited”. In series [4] (read-out: Ki CPB), the Ki is more than 1 mM. Also, the “Ki CPN” value in series [5] is “did not inhibit”. In addition, in series [5] (read-out: Ki CPN), the Ki was more than 1 mM. For the same molecule, in series [3], the “Ki CPM” value is given as “did not inhibit”. In addition, the Ki in series [3] (read-out: Ki CPM) was more than 1000 µM. In addition, the “reduction of NO production” value in [6] is given as 80%. Besides, in [7], the “reduction of PGI2 production” value was found to be 80%. For the same molecule, in [8] (1 mg/kg ip, 1-24 h), the food intake entry is “lower food intake, although the reduction was not significant at 2, 4, 8, or 24 h”. For the same molecule, in [8] (10 mg/kg ip, all time intervals 1-24 h, P < 0.05 vs saline), the food intake entry is listed as “Significant declines in food intake”. Besides, in series [8] (ip), the “time at which attenuation of food intake started” value is recorded as not above 1 h. In series [9] (setting [12]), the ALB was 3.9, the ALP was 93, the ALT came to 33 and the AMY came out at 1041. Moreover, in series [9] (setting [12]), the BUN is 19, the CRE was 0.3, the “Ca^2+” value is 9.9 and the GLOB is 1.5. In series [9] (setting [12]), the GLU is reported as 165, the “K+” value was determined as 5.4, the “Na+” value was determined as 151 and the PHOS is 8.0. In series [9] (setting [12]), this molecule showed a TBIL of 0.4 and a TP of 5.3. For the same molecule, the “changes in electrolyte levels, or markers of kidney and liver function” value in series [9] (mice, within 8 hours of administration) is given as “did not cause significant changes”. In addition, the “decrease in blood glucose levels” value in [9] (treated mice, n=3, P = 0.26) is listed as 15%.
For the molecule `O=C[C@@H]1CCCN1C(=O)[C@@H]1CCCN1C(=O)OCc1ccccc1` [z-Pro-Prolinal, 1-[1-(benzyloxycarbonyl)-L-prolyl] prolinal] (Cbz-Pro-Pro-aldehyde), in series [10], the “rPRCP Ki” value is reported as “little effect”. For the same molecule, the “PRCP-Dependent PK Activation on HPAEC Ki” value in series [11] is reported as “little effect”. Moreover, the IC50 in [1] (listed as Z-Pro-Pro-OH) is more than 2 mM.
